According to patent publication US8143393B2, “Substituted 4-amino-pyrrolotriazine derivatives useful for treating hyper-proliferative disorders and diseases associated with angiogenesis” (Bayer HealthCare LLC, priority 2005, dated 2012):

These molecules were tested against T1, FGFR-1 (Homo sapiens, UniProt P11362) (assay: FGFR-1 TR-FRET biochemical assay). Conditions: 0.6 uM ATP, 5 nM FGFR1-GST; bounds given in nM.
T1 construct: GST; made in house
Method: FGFR-1TR-FRET Biochemical Assay
The FGFR-1 Assay was performed on half well 96-well opaque plates (Costar 3915) in a LANCE format. LANCE is a homogenous time resolved fluormetry based application available through Perkin Elmer. For this assay, 50 uL reactions were set up using: 0.6 uM ATP (Sigma), 25 nM poly GT-biotin (CIS BIO International), 2 nM Eu-labelled phospho-Tyr Ab (PY20 PerkinElmer), 10 nM Streptavidin-APC (Perkin Elmer), 5 nM FGFR1-GST (generated by DRT, Bayer Healthcare), 1% DMSO, 50 mM HEPES pH 7.5, 10 mM MgCl2, 0.1 mM EDTA, 0.015% Brij, 0.1 mg/ml BSA, 0.1% B-mercaptoethanol. All reactions were initiated with the addition of enzyme and were left to incubate for one hour at room temperature. Time-resolved fluorescence was then read on a Perkin Elmer VictorV Multilabel counter. The reading protocol uses an excitation wavelength at 340 nm and emission reads at both 615 and 665 nm. Signal was calculated as a ratio: (Flourescence at 665 nm/Flourescence at 615 nM)*10000 for each well. The background control used for this assay is the signal produced with all assay components excluding ATP. For IC50 generation, compounds were added prior to the enzyme initiation. A 50-fold stock plate was made with compounds serially diluted 1:5 in a 50% DMSO/50% dH2O solution. A 1 μL addition of the stock to the assay wells gave final compound concentrations ranging from 10 μM-0.128 nM in 1% DMSO. The data were expressed as percent inhibition: % inhibition=100−((Signal with inhibitor−background)/(Signal without inhibitor−background))*100.

T1 sequence (P11362 22-822): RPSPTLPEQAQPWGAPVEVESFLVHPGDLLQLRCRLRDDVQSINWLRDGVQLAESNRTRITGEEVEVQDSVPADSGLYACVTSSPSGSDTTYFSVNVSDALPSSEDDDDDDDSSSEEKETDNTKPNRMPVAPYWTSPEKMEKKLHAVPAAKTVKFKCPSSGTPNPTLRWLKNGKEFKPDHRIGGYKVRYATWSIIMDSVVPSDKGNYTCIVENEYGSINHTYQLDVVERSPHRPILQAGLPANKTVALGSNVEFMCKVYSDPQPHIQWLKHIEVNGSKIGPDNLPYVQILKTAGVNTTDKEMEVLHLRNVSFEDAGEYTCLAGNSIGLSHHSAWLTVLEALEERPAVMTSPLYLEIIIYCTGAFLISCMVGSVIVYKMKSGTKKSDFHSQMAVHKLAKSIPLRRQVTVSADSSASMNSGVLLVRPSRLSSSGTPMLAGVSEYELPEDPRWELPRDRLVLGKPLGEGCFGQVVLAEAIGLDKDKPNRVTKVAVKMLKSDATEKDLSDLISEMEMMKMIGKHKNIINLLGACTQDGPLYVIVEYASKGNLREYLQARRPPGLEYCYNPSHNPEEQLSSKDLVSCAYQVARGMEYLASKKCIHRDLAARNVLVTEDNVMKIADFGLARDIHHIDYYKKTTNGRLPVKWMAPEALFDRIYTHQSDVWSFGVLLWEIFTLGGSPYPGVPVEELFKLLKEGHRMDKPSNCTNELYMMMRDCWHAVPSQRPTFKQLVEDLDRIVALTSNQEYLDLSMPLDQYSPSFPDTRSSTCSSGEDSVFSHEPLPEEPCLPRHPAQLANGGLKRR

IC50 [nM] | SMILES
< 10 | Nc1ncnn2c(CN3CCOCC3)cc(-c3ccc(NC(=O)Nc4cc(C(F)(F)F)ccc4Cl)cc3)c12 [Example 52, N-{4-[4-amino-7-(morpholin-4-ylmethyl)pyrrolo[2,1-f][1,2,4]triazin-5-yl]phenyl}-N′-[2-chloro-5-(trifluoromethyl)phenyl]urea]
< 10 | CC(=O)c1cc(-c2ccc(NC(=O)Nc3cc(C(F)(F)F)ccc3F)c(F)c2)c2c(N)ncnn12 [Example 253, N-[4-(7-acetyl-4-aminopyrrolo[2,1-f][1,2,4]triazin-5-yl)-2-fluorophenyl]-N′-[2-fluoro-5-(trifluoromethyl)phenyl]urea]
> 100 | Nc1ncnn2c(CN3CCOCC3)cc(-c3cc(F)c(NC(=O)Nc4cc(C(F)(F)F)ccn4)c(F)c3)c12 [Example 14, N-{4-[4-amino-7-(morpholin-4-ylmethyl)pyrrolo[2,1-f][1,2,4]triazin-5-yl]-2,6-difluorophenyl}-N′-[4-(trifluoromethyl)pyridin-2-yl]urea]
10 to 100 | CNC(=O)N1CCC(c2cc(-c3ccc(NC(=O)Nc4cc(C(F)(F)F)ccc4F)c(F)c3)c3c(N)ncnn23)CC1 [Example 209, 4-{4-amino-5-[3-fluoro-4-({[2-fluoro-5-(trifluoromethyl)phenyl]carbamoyl}amino)phenyl]pyrrolo[2,1-f][1,2,4]triazin-7-yl}-N-methylpiperidine-1-carboxamide]
< 10 | Nc1ncnn2c(C3CCNC3)cc(-c3ccc(NC(=O)Nc4cc(C(F)(F)F)ccc4F)cc3)c12 (stereo not drawn) [Example 206, 1-[4-(4-amino-7-pyrrolidin-3-ylpyrrolo[2,1-f][1,2,4]triazin-5-yl)phenyl]-3-[2-fluoro-5-(trifluoromethyl)phenyl]urea]
< 10 | Nc1ncnn2c(CCN3CCCOCC3)cc(-c3ccc(NC(=O)Nc4cc(C(F)(F)F)ccc4F)c(F)c3)c12 [Example 226, N-(4-{4-amino-7-[2-(1,4-oxazepan-4-yl)ethyl]pyrrolo[2,1-f][1,2,4]triazin-5-yl}-2-fluorophenyl)-N′-[2-fluoro-5-(trifluoromethyl)phenyl]urea]
10 to 100 | Nc1ncnn2c(C3CCN(C4CC4)CC3)cc(-c3ccc(NC(=O)Nc4cc(C(F)(F)F)ccn4)c(F)c3)c12 [Example 235, N-{4-[4-amino-7-(1-cyclopropylpiperidin-4-yl)pyrrolo[2,1-f][1,2,4]triazin-5-yl]-2-fluorophenyl}-N′-[4-(trifluoromethyl)pyridin-2-yl]urea]
< 10 | Nc1ncnn2c(C3CCN(C(=O)CO)CC3)cc(-c3ccc(NC(=O)Nc4cc(C(F)(F)F)ccn4)c(F)c3)c12 [Example 236, N-{4-[4-amino-7-(1-glycoloylpiperidin-4-yl)pyrrolo[2,1-f][1,2,4]triazin-5-yl]-2-fluorophenyl}-N′-[4-(trifluoromethyl)pyridin-2-yl]urea]
< 10 | Nc1ncnn2c(CN3CCOCC3)cc(-c3ccc(NC(=O)Nc4cccc(C(F)(F)F)c4)c(C(F)(F)F)c3)c12 [Example 269, N-[4-[4-amino-7-(morpholin-4-ylmethyl)pyrrolo[2,1-f][1,2,4]triazin-5-yl]-2-(trifluoromethyl)phenyl]-N′-[3-(trifluoromethyl)phenyl]urea]
< 10 | Cc1cc(NC(=O)Nc2cc(C(F)(F)F)ccc2F)ccc1-c1cc(CN2CCOCC2)n2ncnc(N)c12 [Example 29, N-{4-[4-amino-7-(morpholin-4-ylmethyl)pyrrolo[2,1-f][1,2,4]triazin-5-yl]-3-methylphenyl}-N′-[2-fluoro-5-(trifluoromethyl)phenyl]urea]
> 100 | Cc1cc(NC(=O)Nc2cc(C(F)(F)F)ccc2Cl)c(F)cc1-c1cc(CN2CCOCC2)n2ncnc(N)c12 [Example 147, N-{4-[4-amino-7-(morpholin-4-ylmethyl)pyrrolo[2,1-f][1,2,4]triazin-5-yl]-2-fluoro-5-methylphenyl}-N′-[2-chloro-5-(trifluoromethyl)phenyl]urea]
10 to 100 | Nc1ncnn2c(CN3CCOCC3)cc(-c3cc(F)c(NC(=O)Nc4cccc(C(F)(F)F)c4F)cc3F)c12 [Example 42, N-{4-[4-amino-7-(morpholin-4-ylmethyl)pyrrolo[2,1-f][1,2,4]triazin-5-yl]-2,5-difluorophenyl}-N′-[2-fluoro-3-(trifluoromethyl)phenyl]urea]
< 10 | CC(=O)N1CCC(c2cc(-c3ccc(NC(=O)Nc4cc(C(F)(F)F)ccc4F)c(F)c3)c3c(N)ncnn23)C1 (stereo not drawn) [Example 202, N-{4-[7-(1-acetylpyrrolidin-3-yl)-4-aminopyrrolo[2,1-f][1,2,4]triazin-5-yl]-2-fluorophenyl}-N′-[2-fluoro-5-(trifluoromethyl)phenyl]urea]
10 to 100 | Nc1ncnn2c(CCCN3CCSCC3)cc(-c3ccc(NC(=O)Nc4cc(C(F)(F)F)ccc4F)c(F)c3)c12 [Example 196, N-{4-4-[4-amino-7-(3-thiomorpholin-4-ylpropyl)pyrrolo[2,1-f][1,2,4]triazin-5-yl]-2-fluorophenyl}-N′-[2-fluoro-5-(trifluoromethyl)phenyl]urea]
< 10 | CN1CCN(CCCc2cc(-c3ccc(NC(=O)Nc4cc(C(F)(F)F)ccc4F)c(F)c3)c3c(N)ncnn23)CC1 [Example 187, N-(4-{4-amino-7-[3-(4-methylpiperazin-1-yl)propyl]pyrrolo[2,1-f][1,2,4]triazin-5-yl}-2-fluorophenyl)-N′-[2-fluoro-5-(trifluoromethyl)phenyl]urea]
< 10 | Cc1cc(-c2cc(CN3CCCOCC3)n3ncnc(N)c23)ccc1NC(=O)Nc1cc(C(F)(F)F)ccc1F [Example 181, N-{4-[4-amino-7-(1,4-oxazepan-4-ylmethyl)pyrrolo[2,1-f][1,2,4]triazin-5-yl]-2-methylphenyl}-N′-[2-fluoro-5-(trifluoromethyl)phenyl]urea]
< 10 | Nc1ncnn2c(CN3CCOCC3)cc(-c3ccc(NC(=O)Nc4ccc(Cl)c(C(F)(F)F)c4)nc3)c12 [Example 19, N-{5-[4-amino-7-(morpholin-4-ylmethyl)pyrrolo[2,1-f][1,2,4]triazin-5-yl]pyridin-2-yl}-N′-[4-chloro-3-(trifluoromethyl)phenyl]urea]
< 10 | Nc1ncnn2c(CN3CCOCC3)cc(-c3ccc(NC(=O)Nc4cc(F)cc(C(F)(F)F)c4)nc3)c12 [Example 22, N-{5-[4-amino-7-(morpholin-4-ylmethyl)pyrrolo[2,1-f][1,2,4]triazin-5-yl]pyridin-2-yl}-N′-[3-fluoro-5-(trifluoromethyl)phenyl]urea]
10 to 100 | CCS(=O)(=O)N1CCN(Cc2cc(-c3ccc(NC(=O)Nc4cc(C(F)(F)F)ccc4F)cc3)c3c(N)ncnn23)CC1 [Example 84, N-[4-(4-amino-7-{[4-(ethylsulfonyl)piperazin-1-yl]methyl}pyrrolo[2,1-f][1,2,4]triazin-5-yl)phenyl]-N′-[2-fluoro-5-(trifluoromethyl)phenyl]urea]
< 10 | Cc1ccc(F)c(NC(=O)Nc2ccc(-c3cc(CN4CCOCC4)n4ncnc(N)c34)cc2F)c1 [Example 149, N-{4-[4-amino-7-(morpholin-4-ylmethyl)pyrrolo[2,1-f][1,2,4]triazin-5-yl]-2-fluorophenyl}-N′-(2-fluoro-5-methylphenyl)urea]
10 to 100 | COc1cc(-c2cc(CN3CCOCC3)n3ncnc(N)c23)ccc1NC(=O)Nc1cc(C(F)(F)F)ccn1 [Example 31, N-{4-[4-amino-7-(morpholin-4-ylmethyl)pyrrolo[2,1-f][1,2,4]triazin-5-yl]-2-methoxyphenyl}-N′-[4-(trifluoromethyl)pyridin-2-yl]urea]
10 to 100 | Nc1ncnn2c(CCN3CCOCC3)cc(-c3ccc(NC(=O)Nc4cc(C(F)(F)F)ccn4)c(F)c3)c12 [Example 250, 1-{4-[4-amino-7-(2-morpholin-4-ylethyl)pyrrolo[2,1-f][1,2,4]triazin-5-yl]-2-fluorophenyl}-3-[4-(trifluoromethyl)pyridin-2-yl]urea]
10 to 100 | Nc1ncnn2c(C(=O)CO)cc(-c3ccc(NC(=O)Nc4cc(C(F)(F)F)ccc4F)c(F)c3)c12 [Example 234, N-[4-(4-amino-7-glycoloylpyrrolo[2,1-f][1,2,4]triazin-5-yl)-2-fluorophenyl]-N′-[2-fluoro-5-(trifluoromethyl)phenyl]urea]
< 10 | Nc1ncnn2c(CN3CCNC(=O)C3)cc(-c3ccc(NC(=O)Nc4cc(C(F)(F)F)ccn4)c(F)c3)c12 [Example 163, N-(4-{4-amino-7-[(3-oxopiperazin-1-yl)methyl]-pyrrolo [2,1-f][1,2,4]triazin-5-yl}-2-fluorophenyl)-N′-[4-(trifluoromethyl)-pyridin-2-yl]urea]
< 10 | COC[C@@H]1CCCN1CCCc1cc(-c2ccc(NC(=O)Nc3cc(C(F)(F)F)ccc3F)c(F)c2)c2c(N)ncnn12 [Example 184, N-[4-(4-amino-7-{3-[(2S)-2-(methoxymethyl)pyrrolidin-1-yl]propyl}pyrrolo[2,1-f][1,2,4]triazin-5-yl)-2-fluorophenyl]-N′-[2-fluoro-5-(trifluoromethyl)phenyl]urea]

Same assay, conditions: upper bound of the bin 'greater than 100 nM but less than 1 μM' (lower bound in E1)

IC50 [nM] | SMILES
< 1000 | Nc1ncnn2c(CN3CCOCC3)cc(-c3cc(F)c(NC(=O)Nc4cc(C(F)(F)F)ccn4)c(F)c3)c12 [Example 14, N-{4-[4-amino-7-(morpholin-4-ylmethyl)pyrrolo[2,1-f][1,2,4]triazin-5-yl]-2,6-difluorophenyl}-N′-[4-(trifluoromethyl)pyridin-2-yl]urea]
< 1000 | Cc1cc(NC(=O)Nc2cc(C(F)(F)F)ccc2Cl)c(F)cc1-c1cc(CN2CCOCC2)n2ncnc(N)c12 [Example 147, N-{4-[4-amino-7-(morpholin-4-ylmethyl)pyrrolo[2,1-f][1,2,4]triazin-5-yl]-2-fluoro-5-methylphenyl}-N′-[2-chloro-5-(trifluoromethyl)phenyl]urea]
